Test results from patent publication US10364256B2 (GlaxoSmithKline Intellectual Property Development Limited, priority 2015, dated 2019).
pIC50: −log10 of the molar value.

Legend:
[1] = biological target: T1, Keap1 Kelch domain (321-609) / TAMRA-labeled 16mer NRF2 peptide (ETGE motif) (Homo sapiens, UniProt Q14145); assay: NRF2-Keap1 FP Assay (Keap1 Kelch fluorescence polarization); assay type: binding; settings: 20 nM Keap1 (321-609), 8 nM Tamra labeled peptide
T1 construct: the Kelch domain (321-609) of Keap1 is used
Summary of the method: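 Compound dilutions (3-fold) were incubated 1 hr at room temperature with 20 nM Keap1 Kelch (321-609) and 8 nM TAMRA-labeled ETGE 16mer peptide. Buffer was 50 mM Tris pH 8.0, 100 mM NaCl, 5 mM MgCl2, 1 mM DTT, 2 mM CHAPS, 0.005% BSA. Fluorescence polarization (mP) was normalized to controls and fitted with a four-parameter equation to give pIC50.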

[2] = biological target: T2, full length Keap1 protein / full length NRF2 protein (Homo sapiens, UniProt Q14145); assay: NRF2-Keap1 TR-FRET Assay; assay type: binding; settings: 25 nM Keap1-FlagHis and 50 nM biotin-NRF2 added
T2 construct: full length NRF2 protein and full length Keap1 protein (Keap1 exists a dimer) are used; His
Summary of the method: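 Full-length Keap1-FlagHis preincubated with compound 2.25 h at 37 °C, then biotin-NRF2 added for 1.25 h at 4 °C, in Tris pH 8.0 with MgCl2, NaCl, BSA, DTT, CHAPS. TR-FRET 665/615 nm ratio normalised to with- and without-protein 1% DMSO controls; pIC50 from four-parameter fit.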

T1 sequence (Q14145 321-609): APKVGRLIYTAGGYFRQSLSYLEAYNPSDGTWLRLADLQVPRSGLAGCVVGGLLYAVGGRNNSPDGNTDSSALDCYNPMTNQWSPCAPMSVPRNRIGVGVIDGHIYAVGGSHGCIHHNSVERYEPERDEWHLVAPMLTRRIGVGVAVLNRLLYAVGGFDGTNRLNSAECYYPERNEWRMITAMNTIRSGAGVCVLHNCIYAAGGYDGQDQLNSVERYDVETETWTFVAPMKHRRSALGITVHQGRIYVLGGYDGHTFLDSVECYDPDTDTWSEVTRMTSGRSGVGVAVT
T2 sequence (Q14145 whole entry): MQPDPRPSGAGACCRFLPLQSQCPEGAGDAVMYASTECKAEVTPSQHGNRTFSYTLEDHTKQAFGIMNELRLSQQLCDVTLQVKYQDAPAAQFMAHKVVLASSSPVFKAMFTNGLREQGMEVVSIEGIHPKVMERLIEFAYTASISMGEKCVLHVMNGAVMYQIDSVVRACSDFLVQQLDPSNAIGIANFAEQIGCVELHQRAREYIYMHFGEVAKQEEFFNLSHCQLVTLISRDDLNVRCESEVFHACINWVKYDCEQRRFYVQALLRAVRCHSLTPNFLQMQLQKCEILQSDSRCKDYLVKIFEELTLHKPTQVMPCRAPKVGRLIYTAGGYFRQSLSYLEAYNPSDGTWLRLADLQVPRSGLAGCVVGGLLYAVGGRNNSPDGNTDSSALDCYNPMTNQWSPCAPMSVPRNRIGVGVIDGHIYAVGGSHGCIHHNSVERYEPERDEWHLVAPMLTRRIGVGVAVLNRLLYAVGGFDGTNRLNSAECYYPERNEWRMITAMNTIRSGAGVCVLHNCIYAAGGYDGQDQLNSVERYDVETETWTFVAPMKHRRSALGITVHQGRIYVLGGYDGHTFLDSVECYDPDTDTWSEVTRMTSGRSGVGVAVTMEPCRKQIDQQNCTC

| SMILES | pIC50 [1] | pIC50 [2] |
| --- | --- | --- |
| CCC[C@@H]1CCCCN1C(=O)c1cccc(-c2cccc(-n3ncc(C(=O)O)c3[C@@H]3C[C@H]3c3cn(C)nn3)c2)c1 [Example 51h, 5-[(1R,2R)-2-(1-methyl-1H-1,2,3-triazol-4-yl)cyclopropyl]-1-(3-{3-[(2R)-2-propylpiperidine-1-carbonyl]phenyl}phenyl)-1H-pyrazole-4-carboxylic Acid] | 7.00 to 8.00 | 7.00 to 8.00 |
| CCC[C@@H]1CCCCN1C(=O)c1cccc(-c2cccc(-n3ncc(C(=O)O)c3C3CC3c3cn(C)nn3)c2)c1F (stereo partly drawn) [Example 57, 1-(2′-Fluoro-3′-((R)-2-propylpiperidine-1-carbonyl)-[1,1′-biphenyl]-3-yl)-5-(2-(1-methyl-1H-1,2,3-triazol-4-yl)cyclopropyl)-1H-pyrazole-4-carboxylic Acid] | 7.00 to 8.00 | 7.00 to 8.00 |
| O=C(O)c1cnn(-c2cccc(-c3cccc(-n4ncc5c4CCC5)c3)c2)c1C1CC1 [Example 61, 5-Cyclopropyl-1-(3′-(5,6-dihydrocyclopenta[c]pyrazol-1(4H)-yl)-[1,1′-biphenyl]-3-yl)-1H-pyrazole-4-carboxylic Acid] | 6.00 to 7.00 | 5.00 to 6.00 |
| O=C(O)c1cnn(-c2cccc(-c3cccc(-n4ncc5c4CCCC5)c3)c2)c1C1CC1 [Example 62, 5-cyclopropyl-1-(3′-(4,5,6,7-tetrahydro-1H-indazol-1-yl)-[1,1′-biphenyl]-3-yl)-1H-pyrazole-4-carboxylic Acid] | 6.00 to 7.00 | 5.00 to 6.00 |
| CCC[C@@H]1CCCCN1C(=O)c1cccc(-c2cccc(-n3ncc(C(=O)O)c3C3CC3(F)F)c2)c1 (stereo partly drawn) [Example 67, 5-(2,2-Difluorocyclopropyl)-1-(3′-((R)-2-propylpiperidine-1-carbonyl)-[1,1′-biphenyl]-3-yl)-1H-pyrazole-4-carboxylic Acid] | 7.00 to 8.00 | 6.00 to 7.00 |
| CC[C@@H]1CN(Cc2cccc(-c3cccc(-n4ncc(C(=O)O)c4C4CC4c4cn(C)nn4)c3)c2)Cc2ccccc2O1 (stereo partly drawn) [Example 129, 1-(3′-(((R)-2-ethyl-2,3-dihydrobenzo[f][1,4]oxazepin-4(5H)-yl)methyl)-[1,1′-biphenyl]-3-yl)-5-(2-(1-methyl-1H-1,2,3-triazol-4-yl)cyclopropyl)-1H-pyrazole-4-carboxylic Acid] | 7.00 to 8.00 | 7.00 to 8.00 |
| CCC[C@@H]1CCCCN1C(=O)c1cccc(-c2cc(C)cc(-n3ncc(C(=O)O)c3C3CC3c3cn(C)nn3)c2)c1 (stereo partly drawn) [Example 154, 5-(2-(1-Methyl-1H-1,2,3-triazol-4-yl)cyclopropyl)-1-(5-methyl-3′-((R)-2-propylpiperidine-1-carbonyl)-[1,1′-biphenyl]-3-yl)-1H-pyrazole-4-carboxylic Acid] | 7.00 to 8.00 | 7.00 to 8.00 |
| CCC[C@@H]1CCCCN1C(=O)c1cccc(-c2cc(Cl)cc(-n3ncc(C(=O)O)c3C3CC3c3cn(C)nn3)c2)c1 (stereo partly drawn) [Example 160, 1-(5-Chloro-3′-((R)-2-propylpiperidine-1-carbonyl)-[1,1′-biphenyl]-3-yl)-5-(2-(1-methyl-1H-1,2,3-triazol-4-yl)cyclopropyl)-1H-pyrazole-4-carboxylic Acid Compound with 2,2,2-trifluoroacetic Acid (1:1)] | 7.00 to 8.00 | 7.00 to 8.00 |
| CC(CC1CCCCC1)Oc1cccc(-c2cccc(-n3ncc(C(=O)O)c3C3CC3)c2)c1 (stereo not drawn) [Example 161, 1-(3′-((1-Cyclohexylpropan-2-yl)oxy)-[1,1′-biphenyl]-3-yl)-5-cyclopropyl-1H-pyrazole-4-carboxylic Acid] | 5.00 to 6.00 | 4.00 to 5.00 |
| CC(Oc1cccc(-c2cccc(-n3ncc(C(=O)O)c3[C@@H]3C[C@H]3c3cn(C)nn3)c2)c1)C1CCCCC1 (stereo partly drawn) [Example 163, 1-(3′-(1-Cyclohexylethoxy)-[1,1′-biphenyl]-3-yl)-5-((1R,2R)-2-(1-methyl-1H-1,2,3-triazol-4-yl)cyclopropyl)-1H-pyrazole-4-carboxylic acid] | 6.00 to 7.00 | 5.00 to 6.00 |
| Cn1cc(C2CC2c2c(C(=O)O)cnn2-c2cccc(-c3cccc(OCC4CCCCC4)c3)c2)nn1 (stereo not drawn) [Example 164, 1-(3′-(Cyclohexylmethoxy)-[1,1′-biphenyl]-3-yl)-5-(2-(1-methyl-1H-1,2,3-triazol-4-yl)cyclopropyl)-1H-pyrazole-4-carboxylic acid] | 7.00 to 8.00 | 6.00 to 7.00 |
| CC(Oc1cccc(-c2cccc(-n3ncc(C(=O)O)c3[C@H]3C[C@@H]3c3cn(C)nn3)c2)c1)C1CCCCC1 (stereo partly drawn) [Example 165, 1-(3′-(1-Cyclohexylethoxy)-[1,1′-biphenyl]-3-yl)-5-((1S,2S)-2-(1-methyl-1H-1,2,3-triazol-4-yl)cyclopropyl)-1H-pyrazole-4-carboxylic acid] | 7.00 to 8.00 | 7.00 to 8.00 |
| Cn1cc(C2CC2c2c(C(=O)O)cnn2-c2cccc(-c3cccc(OCC4CCN(C(=O)OC(C)(C)C)CC4)c3)c2)nn1 (stereo not drawn) [Example 167, 1-(3′-((1-(tert-Butoxycarbonyl)piperidin-4-yl)methoxy)-[1,1′-biphenyl]-3-yl)-5-(2-(1-methyl-1H-1,2,3-triazol-4-yl)cyclopropyl)-1H-pyrazole-4-carboxylic acid] | 7.00 to 8.00 | 6.00 to 7.00 |
| Cn1cc([C@@H]2C[C@H]2c2c(C(=O)O)cnn2-c2cccc(-c3cccc(OCC4CCCCC4)c3)c2)nn1 [Example 171, 1-(3′-(Cyclohexylmethoxy)-[1,1′-biphenyl]-3-yl)-5-((1R,2R)-2-(1-methyl-1H-1,2,3-triazol-4-yl)cyclopropyl)-1H-pyrazole-4-carboxylic acid] | 7.00 to 8.00 | 6.00 to 7.00 |
| Cn1cc(C2CC2c2c(C(=O)O)cnn2-c2cccc(-c3cccc(SCC4CCCCC4)c3)c2)nn1 (stereo not drawn) [Example 179, 1-(3′-((Cyclohexylmethyl)thio)-[1,1′-biphenyl]-3-yl)-5-(2-(1-methyl-1H-1,2,3-triazol-4-yl)cyclopropyl)-1H-pyrazole-4-carboxylic acid] | 7.00 to 8.00 | 6.00 to 7.00 |
| COC(c1cccc(-c2cccc(-n3ncc(C(=O)O)c3C3CC3c3cn(C)nn3)c2)c1)C1CCCC1 (stereo not drawn) [Example 183, 1-(3′-(Cyclopentyl(methoxy)methyl)-[1,1′-biphenyl]-3-yl)-5-(2-(1-methyl-1H-1,2,3-triazol-4-yl)cyclopropyl)-1H-pyrazole-4-carboxylic acid] | 7.00 to 8.00 | 6.00 to 7.00 |
| Cc1nn(-c2cccc(-c3cccc(OCC4CCCCC4)c3)c2)c(C2CC2c2cn(C)nn2)c1C(=O)O (stereo not drawn) [Example 188, 1-(3′-(cyclohexylmethoxy)-[1,1′-biphenyl]-3-yl)-3-methyl-5-(2-(1-methyl-1H-1,2,3-triazol-4-yl)cyclopropyl)-1H-pyrazole-4-carboxylic Acid] | 6.00 to 7.00 | 5.00 to 6.00 |
| CCC[C@@H]1CCCCN1C(=O)c1cccc(-c2cccc(-n3ncc(C(=O)O)c3C3CC3c3cn(C)nn3)n2)c1 (stereo partly drawn) [Example 196, 5-(2-(1-Methyl-1H-1,2,3-triazol-4-yl)cyclopropyl)-1-(6-(3-((R)-2-propylpiperidine-1-carbonyl)phenyl)pyridin-2-yl)-1H-pyrazole-4-carboxylic Acid] | 7.00 to 8.00 | 7.00 to 8.00 |
| CCC[C@@H]1CCCCN1C(=O)c1cncc(-c2cccc(-n3ncc(C(=O)O)c3C3CC3c3cn(C)nn3)c2)c1 (stereo partly drawn) [Example 197, 5-(2-(1-Methyl-1H-1,2,3-triazol-4-yl)cyclopropyl)-1-(3-(5-((R)-2-propylpiperidine-1-carbonyl)pyridin-3-yl)phenyl)-1H-pyrazole-4-carboxylic acid] | 7.00 to 8.00 | 7.00 to 8.00 |
| CCC[C@@H]1CCCCN1C(=O)c1cccc(-c2cccc(-n3nc(C)c(C(=O)O)c3C3CC3c3cn(C)nn3)c2)c1 (stereo partly drawn) [Example 202, 3-Methyl-5-(2-(1-methyl-1H-1,2,3-triazol-4-yl)cyclopropyl)-1-(3′-((R)-2-propylpiperidine-1-carbonyl)-[1,1′-biphenyl]-3-yl)-1H-pyrazole-4-carboxylic acid] | 7.00 to 8.00 | 7.00 to 8.00 |
| CC1(C)CCc2cnn(-c3cccc(-c4cccc(-n5ncc(C(=O)O)c5C(F)(F)F)n4)c3)c21 [Example 204, 1-(6-(3-(6,6-Dimethyl-5,6-dihydrocyclopenta[c]pyrazol-1(4H)-yl)phenyl)pyridin-2-yl)-5-(trifluoromethyl)-1H-pyrazole-4-carboxylic Acid] | 6.00 to 7.00 | 5.00 to 6.00 |
| CCCC1(C)CCc2cnn(-c3cccc(-c4cccc(-n5ncc(C(=O)O)c5C5CC5)c4)c3)c21 (stereo not drawn) [Example 205, 5-Cyclopropyl-1-(3′-(6-methyl-6-propyl-5,6-dihydrocyclopenta[c]pyrazol-1(4H)-yl)-[1,1′-biphenyl]-3-yl)-1H-pyrazole-4-carboxylic Acid] | 6.00 to 7.00 | 6.00 to 7.00 |
| CCCCC1CCc2cnn(-c3cccc(-c4cccc(-n5ncc(C(=O)O)c5C5CC5)c4)c3)c21 (stereo not drawn) [Example 206, 1-(3′-(6-Butyl-5,6-dihydrocyclopenta[c]pyrazol-1(4H)-yl)-[1,1′-biphenyl]-3-yl)-5-cyclopropyl-1H-pyrazole-4-carboxylic Acid] | 6.00 to 7.00 | 5.00 to 6.00 |
| CCc1nc(-c2cccc(-c3cccc(-n4ncc(C(=O)O)c4C4CC4)c3)c2)no1 [Example 209, 5-Cyclopropyl-1-(3′-(5-ethyl-1,2,4-oxadiazol-3-yl)-[1,1′-biphenyl]-3-yl)-1H-pyrazole-4-carboxylic Acid] | 5.00 to 6.00 | 4.00 to 5.00 |
